Measured values published in publication PMC6291754 (Frontiers in Microbiology, 2018).
“And” between values parts separate entries of the source, which are not always exact repeats. Equal entries are not always repeated. Where two headings read alike, the source gives them in different places.

Experiments:
A/PR/8/34-PA/I38T [1] = assay type: cell-based, influenza A(H1N1) virus; settings: read-out: IC50, plaque reduction
[2] = test system: A/PR/8/34 (PA 38I wild-type); test: microbe, parasite or virus in culture; assay type: cell-based, influenza A(H1N1) virus; settings: Influenza A virus, PR/8, MDCK, 72 h, read-out: IC50, plaque reduction
[3] = test system: A/Chiba/1017/2009 (NA H275Y); assay type: cell-based, influenza A(H1N1)pdm09 virus
[4] = test system: A/Chiba/1016/2009 (NA 275H wild-type); test: microbe, parasite or virus in culture; assay type: cell-based, influenza A(H1N1)pdm09 virus; settings: Influenza A virus, MDCK, 72 h, read-out: IC50, plaque reduction
[5] = test system: A/Fukui/45/2004 (NA E119V); assay type: cell-based, influenza A(H3N2) virus
[6] = test system: A/Fukui/20/2004 (NA 119E wild-type); test: microbe, parasite or virus in culture; assay type: cell-based, influenza A(H3N2) virus; settings: Influenza A virus, MDCK, 72 h, read-out: IC50, plaque reduction
[7] = test system: A/Kagoshima/2/2012 (NA R292K); assay type: cell-based, influenza A(H3N2) virus
[8] = test system: A/Kagoshima/4/2012 (NA 292R wild-type); test: microbe, parasite or virus in culture; assay type: cell-based, influenza A(H3N2) virus; settings: Influenza A virus, MDCK, 72 h, read-out: IC50, plaque reduction
[9] = test system: B/Perth/211/2001-197E (NA D197E); assay type: cell-based, influenza B virus
[10] = test system: B/Perth/211/2001-197D (NA 197D wild-type); test: microbe, parasite or virus in culture; assay type: cell-based; settings: Influenza B virus, MDCK, 72 h, read-out: IC50, plaque reduction
A/PR/8/34-PA/I38T [11] = assay type: cell-based, influenza A(H1N1) virus
[12] = test system: A/PR/8/34 (PA 38I wild-type); test: microbe, parasite or virus in culture; assay type: cell-based, influenza A(H1N1) virus; settings: Influenza A virus, PR/8, MDCK, 24 h, read-out: IC50, focus reduction
[13] = test system: A/Chiba/1017/2009 (NA H275Y); assay type: cell-based, influenza A(H1N1)pdm09 virus; remark: listed apart in the source
[14] = test system: A/Chiba/1016/2009 (NA 275H wild-type); test: microbe, parasite or virus in culture; assay type: cell-based, influenza A(H1N1)pdm09 virus; settings: Influenza A virus, MDCK, 24 h, read-out: IC50, focus reduction
[15] = test system: A/Fukui/45/2004 (NA E119V); assay type: cell-based, influenza A(H3N2) virus; remark: listed apart in the source
[16] = test system: A/Fukui/20/2004 (NA 119E wild-type); test: microbe, parasite or virus in culture; assay type: cell-based, influenza A(H3N2) virus; settings: Influenza A virus, MDCK, 24 h, read-out: IC50, focus reduction
[17] = test system: A/Kagoshima/2/2012 (NA R292K); assay type: cell-based, influenza A(H3N2) virus; remark: listed apart in the source
[18] = test system: A/Kagoshima/4/2012 (NA 292R wild-type); test: microbe, parasite or virus in culture; assay type: cell-based, influenza A(H3N2) virus; settings: Influenza A virus, MDCK, 24 h, read-out: IC50, focus reduction
[19] = test system: B/Perth/211/2001-197E (NA D197E); assay type: cell-based, influenza B virus; remark: listed apart in the source
[20] = test system: B/Perth/211/2001-197D (NA 197D wild-type); test: microbe, parasite or virus in culture; assay type: cell-based; settings: Influenza B virus, MDCK, 24 h, read-out: IC50, focus reduction
[21] = test system: influenza A(H1N1) viruses with PA I38T; settings: cited from earlier work
[22] = test system: influenza A(H1N1) virus with PA I38T; settings: cited from earlier work
[23] = test system: influenza A(H1N1) virus with PA I38F; settings: cited from earlier work
[24] = test system: influenza A(H1N1) virus with PA E23K; settings: cited from earlier work
[25] = test system: influenza B virus with PA G548R; settings: cited from earlier work
[26] = test system: influenza A(H3N2) virus with PA I38T; settings: cited from earlier work
[27] = test system: influenza A(H3N2) virus with PA I38M; settings: cited from earlier work
[28] = test system: influenza A(H3N2) virus with PA A37T; settings: cited from earlier work
[29] = test system: influenza A(H3N2) virus with PA E199G; settings: cited from earlier work
[30] = test system: influenza A(H3N2) virus with PA N412D; settings: cited from earlier work
[31] = test system: influenza A(H3N2) virus with PA V517A; settings: cited from earlier work
[32] = test system: influenza A(H3N2) virus with PA P632S; settings: cited from earlier work
[33] = biological target: A/Chiba/1017/2009 (NA H275Y) neuraminidase (NA) (Influenza A virus, UniProt C7FH46, H275Y); assay type: biochemical, influenza A(H1N1)pdm09 virus
[34] = biological target: A/Fukui/45/2004 (NA E119V) neuraminidase (NA) (Influenza A virus, UniProt C6ELZ0, E119V); assay type: biochemical, influenza A(H3N2) virus
[35] = biological target: A/Kagoshima/2/2012 (NA R292K) neuraminidase (NA) (Influenza A virus, UniProt J9TKI7, R292K); assay type: biochemical, influenza A(H3N2) virus
[36] = biological target: B/Perth/211/2001-197E (NA D197E) neuraminidase (NA) (Influenza B virus, UniProt Q3S340, D197E); assay type: biochemical
[37] = biological target: B/Perth/211/2001-197D (NA 197D wild-type) neuraminidase (NA) (Influenza B virus, UniProt Q3S340); assay type: biochemical
[38] = biological target: A/PR/8/34 (PA 38I wild-type) neuraminidase (NA) (Influenza A virus, UniProt P03468); assay type: biochemical, influenza A(H1N1) virus
[39] = biological target: A/Chiba/1016/2009 (NA 275H wild-type) neuraminidase (NA) (Influenza A virus, UniProt C7FH46); assay type: biochemical, influenza A(H1N1)pdm09 virus
[40] = biological target: A/Fukui/20/2004 (NA 119E wild-type) neuraminidase (NA) (Influenza A virus, UniProt C6ELZ0); assay type: biochemical, influenza A(H3N2) virus
[41] = biological target: A/Kagoshima/4/2012 (NA 292R wild-type) neuraminidase (NA) (Influenza A virus, UniProt J9TKI7); assay type: biochemical, influenza A(H3N2) virus
[42] = biological target: A/PR/8/34-PA/I38T neuraminidase (NA) (Influenza A virus, UniProt P03468)
[43] = read-out: IC50, plaque reduction
[44] = read-out: IC50, focus reduction

Compound: O=C1c2c(O)c(=O)ccn2N([C@@H]2c3ccccc3SCc3c2ccc(F)c3F)[C@@H]2COCCN12 [Baloxavir, baloxavir acid]
- IC50 (A/PR/8/34-PA/I38T [1]): 2720 pM
- IC50 [2]: 50 ± 20 pM
- IC50 fold-change, plaque reduction [3]: 0.21 ± 0.02 (0.8) fold
- IC50 [3, 43]: 210 pM
- IC50 [4]: 270 ± 90 pM
- IC50 fold-change, plaque reduction [5]: 0.15 ± 0.02 (0.4) fold
- IC50 [5, 43]: 150 pM
- IC50 [6]: 420 ± 150 pM
- IC50 fold-change, plaque reduction [7]: 0.22 ± 0.09 (1.5) fold
- IC50 [7, 43]: 220 pM
- IC50 [8]: 150 ± 60 pM
- IC50 fold-change, plaque reduction [9]: 5.68 ± 1.00 (2.6) fold
- IC50 [9, 43]: 5680 pM
- IC50 [10]: 2200 ± 280 pM
- IC50 fold-change, focus reduction (A/PR/8/34-PA/I38T [11]): 44 fold
- IC50 (A/PR/8/34-PA/I38T [11]; [44]): 7400 pM
- IC50 [12]: 170 ± 30 pM
- IC50 fold-change, focus reduction [13]: 0.53 ± 0.15 (1.0) fold
- IC50 [13, 44]: 530 pM
- IC50 [14]: 500 ± 20 pM
- IC50 fold-change, focus reduction [15]: 0.62 ± 0.04 (0.5) fold
- IC50 [15, 44]: 620 pM
- IC50 [16]: 1180 ± 490 pM
- IC50 fold-change, focus reduction [17]: 0.59 ± 0.29 (2.0) fold
- IC50 [17, 44]: 590 pM
- IC50 [18]: 290 ± 80 pM
- IC50 fold-change, focus reduction [19]: 5.63 ± 2.34 (1.0) fold
- IC50 [19, 44]: 5630 pM
- IC50 [20]: 5410 ± 1990 pM
- fold-change in EC50 [21]: 41 fold and 40 fold
- fold higher EC50 [22]: 27.2 fold
- fold higher EC50 [23]: 10.6 fold
- fold higher EC50 [24]: 4.7 fold
- effect of substitution on baloxavir susceptibility [25]: does not affect baloxavir susceptibility
- fold higher EC50 [26]: 56.6 fold
- fold higher EC50 [27]: 13.8 fold
- fold higher EC50 [28]: 8.1 fold
- fold higher EC50 [29]: 4.5 fold
- effect of substitution on baloxavir susceptibility [30]: not affected
- effect of substitution on baloxavir susceptibility [31]: not affected
- effect of substitution on baloxavir susceptibility [32]: not affected

Compound: CO[C@@H]([C@@H]1OC(C(=O)O)=C[C@H](NC(=N)N)[C@H]1NC(C)=O)[C@H](O)CO [Laninamivir]
- NA inhibitor susceptibility (WHO criteria) [33]: 0.3 ± 0.1 NI
- NA inhibitor susceptibility (WHO criteria) [34]: 1.2 ± 0.1 NI
- NA inhibitor susceptibility (WHO criteria) [35]: 3.9 ± 0.1 NI
- NA inhibitor susceptibility (WHO criteria) [36]: 1.9 ± 0.1 NI
- IC50 [37]: 1300 ± 300 pM

Compound: CCC(CC)[C@H](NC(C)=O)[C@@H]1[C@H](O)[C@@H](C(=O)O)C[C@H]1N=C(N)N [Peramivir, peramivir]
- IC50 [38]: 90 ± 10 pM
- IC50 [33]: 28000 ± 3900 pM
- IC50 [39]: 100 ± 100 pM
- IC50 [34]: 200 ± 100 pM
- NA inhibitor susceptibility (WHO criteria) [34]: 0.2 ± 0.1 NI
- IC50 [40]: 200 ± 100 pM
- IC50 [35]: 35200 ± 2600 pM
- IC50 [41]: 100 ± 100 pM
- IC50 [36]: 16200 ± 6000 pM
- NA inhibitor susceptibility (WHO criteria) [36]: 16.2 ± 6.0 RI (key: normal inhibition (NI); RI: a 5- to 50-fold increase in IC50 for influenza B viruses; HRI: influenza B viruses with >50-fold increase in IC50)
- IC50 ([37]; read-out: IC50): 400 ± 100 pM
- IC50 [42]: 90 pM
- IC50 fold-change [42]: 0.09 ± 0.01 (1.0) fold

Compound: CC(=O)N[C@H]1[C@H]([C@H](O)[C@H](O)CO)OC(C(=O)O)=C[C@@H]1N=C(N)N [Zanamivir, zanamivir]
- NA inhibitor susceptibility (WHO criteria) [33]: 0.5 ± 0.1 NI
